Test results published in the CATMoS acute toxicity set (Mansouri et al. 2021).

Assay: rat acute oral toxicity
Conditions: in vivo

SMILES	LD50
COC(=O)CC(=O)CC(=O)OC	4480 mg/kg
C1CNCCN1	1980 mg/kg
C=CC(=O)OCCCC	900 mg/kg
CC(C)(C)C(O)C(Oc1ccc(Cl)cc1)n1cncn1 (stereo not drawn)	689 mg/kg
CC(C)CC(C)O (stereo not drawn)	2590 mg/kg
O=C(O)c1c(Cl)ccc(Cl)c1Cl	650 mg/kg
CC(C)(O)C#N	18.6 mg/kg
CCCCCCCCCCCCN(C)C	740 mg/kg
Clc1ccc(C(Cl)Cl)cc1	1910 mg/kg
CCC(CC)CN	310 mg/kg
COC(C)(C)CCCC(C)C/C=C/C(C)=C/C(=O)OC(C)C (stereo not drawn)	2320 mg/kg
Cc1ccc(C)cc1	3520 mg/kg
NC1CCC(CC2CCC(N)CC2)CC1 (stereo not drawn)	350 mg/kg
N#CC(Cl)Cl	330 mg/kg
NC(=O)c1cccnc1	3500 mg/kg
O=[N+]([O-])c1ccc(O)c([N+](=O)[O-])c1	30 mg/kg
COc1ccc(O)c(C(C)(C)C)c1	2910 mg/kg
C#CC(C)(C)O	1420 mg/kg
CCC12COCN1COC2	3670 mg/kg
O=P(OCCCl)(OCCCl)OCCCl	466 mg/kg
CCCCCCCCC=CCCCCCCCCOCCO	2700 mg/kg
CSc1ccc2c(c1)N(CCC1CCCCN1C)c1ccccc1S2 (stereo not drawn)	995 mg/kg
O=Cc1ccccn1	566 mg/kg
COP(=S)(OC)Oc1ccc(Sc2ccc(OP(=S)(OC)OC)cc2)cc1	444 mg/kg

SMILES	LD50
OC1CCCCC1	1400 mg/kg
COc1ccc(OC)c([N+](=O)[O-])c1	2120 mg/kg
CCCCCCCCC=CCCCCCCCCN(CCO)CCO	1260 mg/kg
NS(=O)(=O)Cc1noc2ccccc12	1990 mg/kg
Cc1cccc(C)c1N	840 mg/kg
COCCCNc1nc(NCCCOC)nc(SC)n1	1400 mg/kg
NNC(=O)c1ccncc1	650 mg/kg
CCC(C)(CCC(C)C)C(=O)OOC(C)(C)C (stereo not drawn)	8080 mg/kg
CCCCCCCCCCCCCCCCCC[N+](C)(C)C	702 mg/kg
O=c1oc2ccccc2c(O)c1C1CC(c2ccc(-c3ccccc3)cc2)Cc2ccccc21 (stereo not drawn)	0.925 mg/kg
CCN(CC)c1c([N+](=O)[O-])cc(C(F)(F)F)c(N)c1[N+](=O)[O-]	3000 mg/kg
CCc1cccc(CC)c1N	1800 mg/kg
CN(C)CCCCCCN(C)C	238 mg/kg
CCCCOCN(C(=O)CCl)c1c(CC)cccc1CC	1740 mg/kg
CN(C)c1ccc(N)cc1	50 mg/kg
O=[N+]([O-])C(Br)(CO)CO	180 mg/kg
CCCNCCC	300 mg/kg
CCCCN(CC)C(=O)SCCC	921 mg/kg
CCN(CC)C(=O)N1CCN(C)CC1	1380 mg/kg
CCCCC(CC)C(=O)O (stereo not drawn)	2040 mg/kg
ClC1=C(Cl)C2(Cl)C3C(Cl)C=CC3C1(Cl)C2(Cl)Cl (stereo not drawn)	40 mg/kg
Cc1ccc(O)c(C)c1	2300 mg/kg
CC(C)CCCCCCCCCCOP(OCCCCCCCCCCC(C)C)OCCCCCCCCCCC(C)C	12000 mg/kg
O=C(Nc1ccc(Cl)c(Cl)c1)Nc1cc(Cl)ccc1Oc1ccc(Cl)cc1S(=O)(=O)O	476 mg/kg

SMILES	LD50
CCCCCCCCCCCCCC[N+](C)(C)CCCCCCCCCCCCCC	930 mg/kg
CN(C)C(=O)Nc1ccc(Oc2ccc(Cl)cc2)cc1	3000 mg/kg
NCCO	1720 mg/kg
Oc1cc(Cl)ccc1Cl	580 mg/kg
CC1(C)[C@H](/C=C2\CCSC2=O)[C@@H]1C(=O)OCc1coc(Cc2ccccc2)c1	650 mg/kg
O=C(Cl)CCCCl	1350 mg/kg
O=[N+]([O-])c1cccc(Cl)c1Cl	381 mg/kg
CCCCOCCOCCOC(OCCOCCOCCCC)c1ccc2c(c1)OCO2	2940 mg/kg
O=P1(N(CCCl)CCCl)NCCCO1 (stereo not drawn)	100 mg/kg
CCC(C)n1c(=O)[nH]c(C)c(Br)c1=O (stereo not drawn)	641 mg/kg
C=COC(C)=O	2900 mg/kg
Cc1ccccc1S(N)(=O)=O	2400 mg/kg
CCOC(=O)CC(O)(CC(=O)OCC)C(=O)OCC	5900 mg/kg
CO[Si](CCCNCCN)(OC)OC	1900 mg/kg
Cc1nnc(-c2ccccc2)c(=O)n1N	1180 mg/kg
CCCCN=C=O	360 mg/kg
Cc1ccc(N)cc1N	73 mg/kg
CC(O)CNCC(C)O (stereo not drawn)	4760 mg/kg
C#CCOS(=O)OC1CCCCC1Oc1ccc(C(C)(C)C)cc1 (stereo not drawn)	2200 mg/kg
CCCCC(Oc1ccc([N+](=O)[O-])cc1C=O)C(=O)O (stereo not drawn)	500 mg/kg
CC1(C)[C@H](C(=O)O[C@@H](C#N)c2cccc(Oc3ccccc3)c2)[C@@H]1C=C(Cl)Cl (single isomer, unassigned)	57 mg/kg
CC1(C)CC(NCCCCCCNC2CC(C)(C)NC(C)(C)C2)CC(C)(C)N1	820 mg/kg
O=C=Nc1cccc(C(F)(F)F)c1	975 mg/kg
C=Cc1cc(Br)ccc1Br	5790 mg/kg

SMILES	LD50
O=C(CC(C(=O)OC1CCCCC1)S(=O)(=O)O)OC1CCCCC1 (stereo not drawn)	2830 mg/kg
C=CC1CC=CCC1 (stereo not drawn)	1600 mg/kg
N#C/N=C1\SCCN1Cc1ccc(Cl)nc1	285 mg/kg
Cc1ccc(Cl)cc1	2100 mg/kg
C=CC(=O)OCC1CO1 (stereo not drawn)	150 mg/kg
CC(Cl)(Cl)C(=O)O	6940 mg/kg
NC(=O)CF	5.75 mg/kg
O=C(O)c1ccccc1-c1c2cc(I)c(=O)c(I)c-2oc2c(I)c(O)c(I)cc12	1840 mg/kg
CC(O)CC(C)(C)O (stereo not drawn)	3700 mg/kg
CC(C)(C#N)C(C)(C)C#N	27 mg/kg
O=C(OCC1CCC2OC2C1)C1CCC2OC2C1 (stereo not drawn)	4490 mg/kg
COc1ccccc1[N+](=O)[O-]	740 mg/kg
CNC(=O)CSP(=O)(OC)OC	25 mg/kg
CCCCC=O	4580 mg/kg
CCOP(=S)(OCC)SCCSCC	1.9 mg/kg
CC1(C)C(C=C(Br)Br)C1C(=O)OC(C#N)c1cccc(Oc2ccccc2)c1 (stereo not drawn)	40.5 mg/kg
CCCCC(=O)O	1060 mg/kg
COP(=O)(OC)O/C(C)=C/C(=O)N(C)C	9 mg/kg
Cn1sccc1=O	105 mg/kg
COC(=O)C(N)Cc1cnc[nH]1 (stereo not drawn)	1370 mg/kg
CC(COCC(C)OC(=O)c1ccccc1)OC(=O)c1ccccc1 (stereo not drawn)	3300 mg/kg
C/C(=N\NC(=O)Nc1cc(F)cc(F)c1)c1ncccc1C(=O)O	3300 mg/kg
CC1(C)[C@H](C(=O)O[C@H](C#N)c2cccc(Oc3ccccc3)c2)[C@@H]1C(Br)C(Br)(Br)Br (stereo partly drawn)	99 mg/kg
Cc1cccc(N)c1C	930 mg/kg

SMILES	LD50
CCN(CC)c1nc(C)cc(OP(=S)(OC)OC)n1	1250 mg/kg
NCCNCCN	1080 mg/kg
Oc1ccc(Cl)cc1	500 mg/kg
CCCOP(=O)(OCCC)Oc1ccc(SC)cc1	61 mg/kg
C=CCN=C=S	112 mg/kg
C#CCN1CC(=O)N(COC(=O)[C@@H]2[C@@H](C=C(C)C)C2(C)C)C1=O	900 mg/kg
COP(=S)(OC)Oc1ccc(C#N)cc1	580 mg/kg
CCC(C)C=O (stereo not drawn)	6400 mg/kg
Nc1cccc([N+](=O)[O-])c1	535 mg/kg
O=C1CCCC(=O)O1	540 mg/kg
OCC(CO)(CBr)CBr	1880 mg/kg
CCOC(=O)c1ccc(O)cc1	4300 mg/kg
CCc1cccc(C)c1N(C(=O)CCl)C(C)COC (stereo not drawn)	2200 mg/kg
Cc1ccc(Nc2ccc(Nc3ccc(C)cc3)c3c2C(=O)c2ccccc2C3=O)cc1	3000 mg/kg
CN(CCCCCC(=O)O)S(=O)(=O)c1ccccc1 (racemic)	3040 mg/kg
CCNCCO	1000 mg/kg
CCC(C)(C#N)/N=N/C(C)(C#N)CC (stereo not drawn)	333 mg/kg
O=c1oc2ccccc2c(O)c1C1CC(c2ccc(OCc3ccc(C(F)(F)F)cc3)cc2)Cc2ccccc21 (stereo not drawn)	0.25 mg/kg
CC1(C)CC(N)CC(C)(C)N1	906 mg/kg
C=CCOC(C)=O	130 mg/kg
CC[N+](=O)[O-]	1080 mg/kg
Cc1ccc(O)cc1	207 mg/kg
C#CCOC(=O)[C@@H](C)Oc1ccc(Oc2ncc(Cl)cc2F)cc1	2230 mg/kg
CCCCOP(C)(=O)CCC(C#N)OC(C)=O (stereo not drawn)	253 mg/kg

SMILES	LD50
CNP(=O)(OC)Oc1ccc(C(C)(C)C)cc1Cl (stereo not drawn)	460 mg/kg
CCOP(=S)(OCC)SCSP(=S)(OCC)OCC	13 mg/kg
CCOC(=O)C(O)(c1ccc(Cl)cc1)c1ccc(Cl)cc1	700 mg/kg
Cc1nc(N(C)C)nc(OC(=O)N(C)C)c1C	100 mg/kg
CCCNC(=O)NS(=O)(=O)c1ccc(Cl)cc1	2150 mg/kg
N#Cc1c(Cl)c(Cl)c(Cl)c(C#N)c1Cl	242 mg/kg
N#CCC(=O)O	1010 mg/kg
C=C(C)C(=O)OCc1ccccc1	3980 mg/kg
CCCCCC1CCC(=O)O1 (stereo not drawn)	6600 mg/kg
O=P(OC(CCl)CCl)(OC(CCl)CCl)OC(CCl)CCl	1850 mg/kg
CC(CCl)OP(=O)(OC(C)CCl)OC(C)CCl (stereo not drawn)	980 mg/kg
CCO[Si](CCCSC#N)(OCC)OCC	986 mg/kg
C=CC#N	78 mg/kg
CC(C)C1OCC=CCO1	1000 mg/kg
CC(Cc1ccc(C(C)(C)C)cc1)CN1CC(C)OC(C)C1 (stereo not drawn)	1670 mg/kg
C[Si](C)(Cl)Cl	595 mg/kg
COc1c(Cl)ccc(Cl)c1C(=O)O	757 mg/kg
Cc1cccc(N=C=O)c1	2930 mg/kg
CC(=O)c1ccccc1	858 mg/kg
O=C1OC(=O)c2ccccc21	1530 mg/kg
COP(=S)(OC)Oc1ccc(S(=O)(=O)N(C)C)cc1	28 mg/kg
CCCCCCCC(=O)OCC(COC(=O)CCCCCCC)OC(=O)CCCCCCC	33300 mg/kg
Clc1cc(Cl)c(Cl)nc1Cl	1000 mg/kg
OCCN1CN(CCO)CN(CCO)C1	763 mg/kg

SMILES	LD50
CCSC(=O)N(CC(C)C)CC(C)C	4000 mg/kg
OCCCCCCO	3000 mg/kg
O=S(=O)(O)OCCOc1ccc(Cl)cc1Cl	480 mg/kg
CNC(=O)Oc1cccc2c1OC(C)(C)C2	5.15 mg/kg
ClCc1ccccc1	440 mg/kg
CNC(=O)CC#N	387 mg/kg
CCC(C)(C)OC	1600 mg/kg
C=C(Cl)Cl	80 mg/kg
COP(=S)(OC)Oc1ccc([N+](=O)[O-])c(C)c1	250 mg/kg
CCOC(=O)c1cn2nc(OP(=S)(OCC)OCC)cc2nc1C	151 mg/kg
ClC(Cl)(Cl)C(Cl)(Cl)Cl	4460 mg/kg
OCCc1ccccc1	1600 mg/kg
OC[C@@H](O)[C@@H](O)CO	13100 mg/kg
CCCCC(CC)COS(=O)(=O)O (stereo not drawn)	2840 mg/kg
Cc1ccccc1O	121 mg/kg
O=C(O)CF	0.1 mg/kg
CCC1(c2ccccc2)C(=O)NC(=O)NC1=O	162 mg/kg
CC(=O)C1=C(C)[C@@H]2C[C@@]3(C1)[C@H](C)CC[C@H]3C2(C)C	4500 mg/kg
CC1=C(C(=O)Nc2ccccc2)S(=O)(=O)CCO1	1630 mg/kg
COC(=O)c1ccccc1	1180 mg/kg
C[Si](C)(C)N[Si](C)(C)C	847 mg/kg
CC(=O)C(C)=O	1580 mg/kg
ClCCl	1500 mg/kg
Clc1ccc(C2(Cn3cncn3)CC(Br)CO2)c(Cl)c1 (stereo not drawn)	328 mg/kg
